Data published in patent US8481678B2, “Peptide-based tooth whitening reagents” (E I du Pont de Nemours and Company, priority 2009, dated 2013).
Where no end group is shown, it is not given here. The star is where a group is joined. Biotin = O=C1N[C@H]2[C@H](CS[C@H]2CCCCC(=O)*)N1

Key:
[1] = Phage ELISA, polished enamel-binding assay; parameters: species or system bovine; details: phage ELISA on polished enamel, over 10^10 pfu phage; no-phage control 0.112
Procedure: A total of 11 selected phage candidates (Example 3) were used in a phage ELISA experiment. Purified phage lysates were used for binding to the enamel blocks using an anti-M13 phage antibody conjugated to horseradish-peroxidase, followed by the addition of chromogenic agent TMB, obtained from Pierce Biotechnology (Rockford, Ill.). The plates were read at A450 nm.
For each phage candidate to be tested, the polished and unpolished enamel blocks were incubated for 1 h at room temperature with 200 μL of blocking buffer, consisting of 2% non-fat dry milk (Schleicher & Schuell, Inc.) in TBS. […] The tube was rinsed 6 times with wash buffer consisting of TBST-0.05%. The wells were filled with 200 μL of TBST-0.5% containing 1 mg/mL BSA and then 10 μL (over 10^10 pfu) of purified phage stock was added. The samples were incubated at room temperature for 60 min with slow shaking. The non-binding phage was removed by washing 6 times with TBST-0.5%. […] The conjugate solution was removed and was washed 6 times with TBST-0.5%. […] “BoEn P” means bovine polished enamel and BoEn means bovine enamel.

[2] = 20 μM biotinylated peptide; mean of at least three replicates; no-peptide control 0.066
Source text: Enzyme-linked immunosorbent assay (ELISA) was used to evaluate the cellulose acetate coated iron oxide particle-binding affinity of the biopanning selected peptide candidates (Example 6; biotinylated peptides phage ID: CA-1 to CA-4). The identified peptides were synthesized using a standard solid-phase synthesis method (see U.S. patent application Ser. No. 11/251/715). All peptides were modified to contain a biotinylated lysine residue at the C-terminus of the amino acid binding sequence for detection purposes (Table 6).
The cellulose acetate-coated iron oxide particles were dispersed in water at 2.5 mg per mL. […] The particle dispersion (1 mL each) was then centrifuged for 2 min at 5000 rpm, the aqueous was removed by aspirating it out of each tube. The tubes were incubated in SUPERBLOCK® blocking buffer (Pierce Chemical Company, Rockford, Ill.; Prod. #37535) for 1 hour at room temperature (˜22° C.), followed by 3 washes with TBST (TBS in 0.05% TWEEN® 20). Then tubes were then rinsed 3 times with wash buffer consisting of TBST-0.05% using the same centrifugation and aspiration methods. Peptide binding buffer consisting of 20 μM biotinylated peptides in TBST and 1 mg/mL BSA was added to the particles and incubated for 1 hour at room temperature (˜22° C.), followed by 6 TBST washes. Then, the streptavidin-alkaline phosphatase (AP) conjugate (Pierce Chemical Co., Rockford, Ill.) was added to each well at standard concentration and incubated for 1 hour at room temperature, followed by 6 times of washes with TBST. All particles were then transferred to new tubes and then the color development and the absorbance measurements were performed following the manufacturer's standard protocols.

[3] = tested on: pellicle-coated enamel substrates; details: 20 μM synthetic biotinylated peptide, 30 min at 37° C.; normalized to DenP03; three replicates; no peptide −0.001
Procedure: A total of 20 synthetic peptides were manufactured using sequences obtained from Table 14. Peptides were obtained from Synbiosci (Livermore, Calif.) and included an additional SSRP sequence (SEQ ID NO: 151) at the N-terminus and biotin labeled lysine at the C-terminus.
Enamel substrates were cut to approx. 7 mm squares and mounted on wax mounting for incubation in the mouth for 30 min to form a pellicle coated surface. The pellicle-coated enamel substrates were removed from the wax backing and placed in well plates with the pellicle surface exposed as in Example 1. Each pellicle-coated substrate was incubated for 1 h at room temperature (˜22° C.) with 1 mL of blocking buffer, consisting of 1 mg/mL BSA in PBST (Pierce BupH™ #28372 with 0.1% TWEEN® 20). The blocking buffer was removed by aspirating the liquid out of each well. The tube was rinsed 2 times with wash buffer consisting of PBST. The wells were filled with 500 μL of 20 μM peptide solution which was prepared by diluting in blocking buffer. The samples were incubated for 30 min with slow shaking at 37° C. The non-binding peptide was removed by washing 6 times with PBST. Then, 500 μL of horseradish peroxidase/streptavidin conjugate (Pierce #22127), diluted 1:2000 in PBST, was added and incubated for 1 h at room temperature. The conjugate solution was removed and was washed 4 times with PBST.
Each enamel substrate was removed from the well and washed again in a 15-mL test tube with 10 mL of PBST. Each enamel substrate was then mounted in a clean well plate with only the enamel surface exposed. A 1:1 solution of TMB substrate and H2O2 (200 μL), obtained from Pierce Biotechnology (Rockford, Ill.) was added to each well and the color was allowed to develop for between 10 to 20 min, typically for 15 min, at room temperature (˜22° C.). Then, 100 μL of solution from each well was transferred to a 96-well reading plate containing stop solution (100 μL of 2 M H2SO4) in each well. The A450 was measured using a microplate spectrophotometer (Molecular Devices, Sunnyvale, Calif.). […] Each sequence was tested with three replicate enamel coated pellicle substrates.

[4] = tested on: pellicle-coated enamel substrates; details: range of peptide concentrations, 2 h at 37° C., 4-MUP fluorescence; calculated from Scatchard plots
Source text: The pellicle-coated enamel substrates were removed from the wax backing and placed in well plates with the pellicle surface exposed as in Example 1. […] The blocking buffer was removed by aspirating the liquid out of each well. The tube was rinsed 2 times with wash buffer consisting of PBST. […] The non-binding peptide was removed by washing 6 times with PBST. […] The conjugate solution was removed and was washed 4 times with PBST.
Each enamel substrate was removed from the well and washed again in a 15-mL test tube with 10 mL of PBST. Each enamel substrate was then mounted in a clean well plate with only the enamel surface exposed.

Row | O.D. at 450 nm [1] | Substance | O.D. at 405 nm [2] | other results
1 | 0.641 | EPPTRTRVNNHTVTVQAQQH (Tooth-binding peptide) [BoEn P2] |  | 
2 |  | NGNNHTDIPNRSSYTGGSFA-K-biotin-NH2 [CA-3] | 0.279 | 
3 | 0.665 | GYCLRGDEPAVCSG (Tooth-binding peptide) [BoEn P3] |  | 
4 |  | ATTPPSGKAAAHSAARQKGN-K-biotin-NH2 [CA-1] | 0.269 | 
5 |  | DTIHPNKMKSPSSPL-K-biotin-NH2 [CA-2] | 0.207 | 
6 |  | SDETGPQIPHRRPTW-K-biotin-NH2 [CA-4] | 0.141 | 
7 | 0.83 | NTCQPTKNATPCSA (Tooth-binding peptide) [BoEn P6] |  | 
8 | 2.02 | THNMSHFPPSGHPKRTAT (Tooth-binding peptide) [BoEn P8] |  | 
9 |  | SSRPHKNENIMQYNVNDRWHITPAK(Biotin) [DenP32-A] |  | O.D. at 450 nm (normalized) [3]: 1.135; MB50 [4]: 25 µM
10 |  | SSRPTTYHYKNIYQESYQQRNPAVK(Biotin) [DenP3-A] |  | O.D. at 450 nm (normalized) [3]: 1.000; MB50 [4]: 28 µM
11 | 0.797 | NFCETQLDLSVCTV (Tooth-binding peptide) [BoEn P5] |  | 
